The values below come from article PMC4698308, “A new amino acid substitution (Ala-205-Phe) in acetolactate synthase (ALS) confers broad spectrum resistance to ALS-inhibiting herbicides” (Planta, 2015).

Test [1] concerns annual bluegrass population POAAN-R3. Also on record: method as in Brosnan et al. [2015]. The settings on record: ref Brosnan et al. [2015], cited from earlier work.
Test [2] has as its system annual bluegrass (Poa annua L.). The experiment in a line: Whole plant confirmation of target-site resistance (visual control and dry biomass 28 days after treatment). It is filed as in vivo. How it is done:
Progeny of all POAAN-R3 plants subjected to genetic sequencing (RP1–RP8) were surface seeded into separate 10.2 × 10.2 cm greenhouse pots (Dillen Products/Myers Industries, Inc. Middlefield, OH, USA.) filled with a peat moss growing medium (ProMix BX Mycorrhizae. Premier Tech Horticulture, Quakertown, PA, USA) on 5 January 2015. The susceptible annual bluegrass population (S) included in our sequencing analysis was also seeded in the same fashion.
After seeding, pots were placed inside a growth chamber (Conviron A1000. Controlled Environments Inc, Hendersonville, NC) configured to provide 14 h day at 19 °C and a 10 h night at 10 °C. Light intensity inside the chamber averaged 296 μmol m^−2 s^−1. Irrigation was applied to each pot daily using distilled water and a misting nozzle. Annual bluegrass emergence was first noted on 16 January 2015. Plants remained inside the growth chamber until 26 January 2015. On this date, seedlings of each plant (RP1–RP8, S) were transplanted into individual 164 cm^3 plastic conical containers (SC10 Super Cell Cone-tainer. Stuewe and Sons. Tangent, OR 97389) filled with Sequatchie silt loam (fine-loamy, siliceous, semiactive, thermic humic Hapludult) measuring 6.2 in soil pH and 2.1 % in organic matter content. Transplants were replicated such that 32 plastic conical containers were created for each annual bluegrass plant analyzed in previous experiments (RP1–RP8, S). Immediately after transplanting, plastic conical containers were placed in a glasshouse located at the University of Tennessee (Knoxville, TN, USA; 35.56, 83.56). Peak light intensity in this glasshouse averaged 714 μmol m^−2 s^−1 with day/night temperatures averaging 27/17 °C. Irrigation was applied daily using an overhead misting system and plants were not clipped prior to initiating this study.
Plants were allowed to acclimate to this glasshouse environment for 10 days prior to being treated with foramsulfuron (Revolver. Bayer Environmental Sciences. Research Triangle Park, NC, USA) at 29 g ha^−1, imazamox (Clearcast. BASF Corporation. Research Triangle Park, NC) at 140 g ha^−1, or simazine (Princep 4L. Syngenta Professional Products. Greensboro, NC) at 1120 g ha^−1. Per label recommendations, imazamox and simazine treatments included a non-ionic surfactant (Activator-90. Loveland Products Inc. Greeley, CO, USA) at 0.25 % v/v. All treatments were applied in an enclosed spray chamber (Generation III track sprayer. DeVries Manufacturing, Hollandale, MN, USA) using a water carrier at 215 L ha^−1 through an 8004 EVS nozzle (TeeJet, Technologies, Spraying Systems Co., Glendale Heights, IL, USA). These herbicide treatments were selected to confirm results of genetic sequencing that RP1–RP8 were resistant to sulfonylurea, imidazolinone, and photosystem II inhibiting herbicides. A non-treated control treatment was included with each resistant (RP1–RP8) and susceptible (S) plant for comparison. Herbicides were applied on 5 February 2015 when plants were at a two-to-three leaf stage, prior to annual bluegrass tiller formation.
Annual bluegrass control was visually assessed on a 0 (i.e., no control) to 100 % (i.e., complete kill) scale relative to the non-treated 28 days after treatment. After all control data had been collected, aboveground biomass was harvested from each plastic conical container at the soil line using scissors, dried at 100 °C for 3 days, and weighed.
Treatments were arranged as a 9 × 4 factorial with nine plant selections (i.e., RP1–RP8, S) and four herbicide treatments (i.e., foramsulfuron, imazamox, simazine, non-treated) in a completely randomized design with four replications and repeated in time and space during February 2015. Plants were the same age during both experimental runs.

Test [3] has as its target T1, recombinant Arabidopsis thaliana ALS wild-type enzyme (WT—sensitive) (Arabidopsis thaliana, UniProt P17597).
T1 construct: Protein constructs contained an 85 amino acid N-terminal deletion (chloroplast transit peptide); Hexa-histidine tag (N); made in house
The experiment in a line: biochemical. The conditions noted are these: concentration for 50 % inhibition of WT enzyme; max inhibitor concentration 1.00 × 10^−04 M; read-out: WT sensitivity [IC50]. A digest of the protocol: (§1)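 His-tagged enzymes lacking the 85-residue N-terminal transit peptide, expressed and purified. Herbicides in DMSO added; reaction 60 min at 30 °C, stopped with H2SO4, acetolactate converted to acetoin at 56 °C for 15 min.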

Test [4] deals with recombinant Arabidopsis thaliana ALS variant A205V. The format is biochemical. The conditions noted are these: IC50 mutant divided by IC50 sensitive ALS; max inhibitor concentration 1.00 × 10^−04 M. A digest of the protocol:
as §1

Test [5] has as its system recombinant Arabidopsis thaliana ALS variant W574L. The format is biochemical. The conditions noted are these: IC50 mutant divided by IC50 sensitive ALS; max inhibitor concentration 1.00 × 10^−04 M. A digest of the protocol: as §1
Test [6] relates to recombinant Arabidopsis thaliana ALS variant A205F. It is filed as biochemical. The conditions noted are these: IC50 mutant divided by IC50 sensitive ALS; max inhibitor concentration 1.00 × 10^−04 M. The method in brief: as §1
Test [7] relates to annual bluegrass (Poa annua L.). The experiment in a line: Whole plant non-target site resistance experiment with P450 inhibitors malathion or PBO (control 21 days after treatment). The format is in vivo. The conditions noted are these: for Annual bluegrass control S: susceptible (S). As to the method: Additional experiments were conducted during March–April 2015 to determine if non-target site based mechanisms conferred resistance to ALS inhibitors in our annual bluegrass population, POAAN-R3. Plants (RP6, RP7, and S) were cultured in plastic conical containers as previously described and allowed to acclimate to the glasshouse for 18 days prior to initiating two experiments.
In the first experiment, resistant (RP6, RP7) and susceptible (S) plants were treated with foramsulfuron at 29 g ha^−1, trifloxysulfuron (Monument. Syngenta Professional Products. Greensboro, NC, USA) at 27.8 g ha^−1, imazaquin (Image. BASF Corporation. Research Triangle Park, NC) at 27.5 g ha^−1, or bispyribac-sodium (Velocity. Valent USA Corporation. Walnut Creek, CA, USA) at 70 g ha^−1. All herbicides were applied alone or in combination with either malathion (Spectrum Group. St. Louis, MO, USA) at 1000 g ha^−1 or piperonyl butoxide (Sigma Aldrich. St. Louis, MO, USA) at 2100 g ha^−1. Malathion and piperonyl butoxide (PBO) inhibit cytochrome P450 monooxygenases involved in metabolism of ALS inhibiting herbicides and are commonly used at the application rates tested herein to evaluate non-target site based resistance mechanisms in weeds (Burnet et al. [1994]; Christopher et al. [1992]; Yu and Powles [2014b]; Rao et al. [1995]). All herbicides were mixed in water carrier and included non-ionic surfactant at 0.25 % v/v. Malathion and PBO were mixed with methanol and de-ionized water (50:50) and applied 60 min prior to herbicide application using a previously described enclosed spray chamber on 13 February 2015.
Annual bluegrass control was visually assessed on a 0 (i.e., no control) to 100 % (i.e., complete kill) scale relative to the non-treated 21 days after treatment. After all control data had been collected, aboveground biomass was harvested from each plastic conical container at the soil line using scissors, dried at 100 °C, and weighed. Treatments were arranged as a 3 × 5 × 3 factorial with three plant selections (RP6, RP7, S), five herbicides (foramsulfuron, trifloxysulfuron, imazaquin, bispyribac-sodium, non-treated) and three P450 inhibitor treatments (malathion, PBO, non-treated) in a completely randomized design with four replications and repeated in separate glasshouses during February 2015.

Where two headings read alike, the source gives them in different places. Some results are limits rather than exact numbers.

T1 sequence (P17597 86-670): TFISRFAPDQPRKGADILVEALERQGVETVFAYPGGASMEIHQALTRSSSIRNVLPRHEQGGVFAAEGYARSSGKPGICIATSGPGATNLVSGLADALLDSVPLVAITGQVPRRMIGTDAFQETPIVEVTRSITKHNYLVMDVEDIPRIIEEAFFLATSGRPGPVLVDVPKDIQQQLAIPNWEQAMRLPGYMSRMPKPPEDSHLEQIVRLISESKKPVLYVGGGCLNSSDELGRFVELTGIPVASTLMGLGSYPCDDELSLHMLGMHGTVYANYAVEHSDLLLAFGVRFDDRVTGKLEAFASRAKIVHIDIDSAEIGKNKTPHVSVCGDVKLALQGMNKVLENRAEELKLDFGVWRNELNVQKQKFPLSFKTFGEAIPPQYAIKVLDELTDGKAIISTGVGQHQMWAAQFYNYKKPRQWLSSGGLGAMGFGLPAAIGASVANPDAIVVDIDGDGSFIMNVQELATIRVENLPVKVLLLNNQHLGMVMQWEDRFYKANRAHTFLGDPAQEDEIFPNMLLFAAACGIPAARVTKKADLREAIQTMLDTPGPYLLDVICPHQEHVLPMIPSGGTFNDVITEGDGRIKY

Turning to `CCNc1nc(Cl)nc(NCC)n1` [Simazine], the “control of POAAN-R3” value in test [1] (140 to 9000 g ha^−1) is on record as at most 20%. Besides, in test [2] (RP1, aboveground dry biomass 28 days after treatment, foramsulfuron 29, imazamox 140, simazine 1120 g ha^-1), the “Annual bluegrass biomass RP1” value was 124 % of nontreated control. Also, in test [2] (RP1 plants, 28 days after treatment, 2 to 3 leaf stage, foramsulfuron 29, imazamox 140, simazine 1120 g ha^−1), the “Annual bluegrass control RP1” value is listed as 0%. Moreover, the “Annual bluegrass biomass RP2” value in test [2] (RP2, aboveground dry biomass 28 days after treatment, foramsulfuron 29, imazamox 140, simazine 1120 g ha^-1) is 105 % of nontreated control. The “Annual bluegrass control RP2” value in test [2] (RP2 plants, 28 days after treatment, 2 to 3 leaf stage, foramsulfuron 29, imazamox 140, simazine 1120 g ha^−1) is 0%. The “Annual bluegrass biomass RP3” value in test [2] (RP3, aboveground dry biomass 28 days after treatment, foramsulfuron 29, imazamox 140, simazine 1120 g ha^-1) is recorded as 140 % of nontreated control. Also, the “Annual bluegrass control RP3” value in test [2] (RP3 plants, 28 days after treatment, 2 to 3 leaf stage, foramsulfuron 29, imazamox 140, simazine 1120 g ha^−1) amounted to 0%. In addition, the “Annual bluegrass biomass RP4” value in test [2] (RP4, aboveground dry biomass 28 days after treatment, foramsulfuron 29, imazamox 140, simazine 1120 g ha^-1) is recorded as 95 % of nontreated control. The “Annual bluegrass control RP4” value in test [2] (RP4 plants, 28 days after treatment, 2 to 3 leaf stage, foramsulfuron 29, imazamox 140, simazine 1120 g ha^−1) is given as 0%. The “Annual bluegrass biomass RP5” value in test [2] (RP5, aboveground dry biomass 28 days after treatment, foramsulfuron 29, imazamox 140, simazine 1120 g ha^-1) is 82 % of nontreated control. In test [2] (RP5 plants, 28 days after treatment, 2 to 3 leaf stage, foramsulfuron 29, imazamox 140, simazine 1120 g ha^−1), the “Annual bluegrass control RP5” value is reported as 0%. For the same molecule, in test [2] (RP6, aboveground dry biomass 28 days after treatment, foramsulfuron 29, imazamox 140, simazine 1120 g ha^-1), the “Annual bluegrass biomass RP6” value is recorded as 0 % of nontreated control. Further, the “Annual bluegrass control RP6” value in test [2] (RP6 plants, 28 days after treatment, 2 to 3 leaf stage, foramsulfuron 29, imazamox 140, simazine 1120 g ha^−1) is reported as 100%. Moreover, the “Annual bluegrass biomass RP7” value in test [2] (RP7, aboveground dry biomass 28 days after treatment, foramsulfuron 29, imazamox 140, simazine 1120 g ha^-1) is reported as 99 % of nontreated control. The “Annual bluegrass control RP7” value in test [2] (RP7 plants, 28 days after treatment, 2 to 3 leaf stage, foramsulfuron 29, imazamox 140, simazine 1120 g ha^−1) is on record as 0%. Also, in test [2] (RP8, aboveground dry biomass 28 days after treatment, foramsulfuron 29, imazamox 140, simazine 1120 g ha^-1), the “Annual bluegrass biomass RP8” value is recorded as 101 % of nontreated control. Also, in test [2] (RP8 plants, 28 days after treatment, 2 to 3 leaf stage, foramsulfuron 29, imazamox 140, simazine 1120 g ha^−1), the “Annual bluegrass control RP8” value came to 0%. The “Annual bluegrass control S” value in test [2] (susceptible (S) plants, 28 days after treatment, 2 to 3 leaf stage, foramsulfuron 29, imazamox 140, simazine 1120 g ha^−1) is 98%. The “Annual bluegrass biomass S” value in test [2] (susceptible (S), aboveground dry biomass 28 days after treatment, foramsulfuron 29, imazamox 140, simazine 1120 g ha^-1) was 5 % of nontreated control.
Usually IC50 stands for the concentration at which inhibition is half-maximal. Consider `COc1cc(OC)nc(NC(=O)NS(=O)(=O)c2ncccc2OCC(F)(F)F)n1` [Trifloxysulfuron], for which the IC50 in test [3] was 5.9 nM. The “Resistance factor A205V” value in test [4] is 9. In addition, in test [5], the “Resistance factor W574L” value is 6447. Also, the “Resistance factor A205F” value in test [6] is 2983. Further, the “control of POAAN-R3” value in test [1] (rates as high as 223 g ha^−1) is reported as at most 40%. The “Annual bluegrass control RP6” value in test [7] (RP6, herbicide alone, foramsulfuron 29, trifloxysulfuron 27.8, imazaquin 27.5, bispyribac-sodium 70 g ha^−1) is 38%; in test [7] (RP6, herbicide with PBO 2100 g ha^−1 applied 60 min prior) it was 55%; in test [7] (RP6, herbicide with malathion 1000 g ha^−1 applied 60 min prior) it was 49%. The “Annual bluegrass control RP7” value was 22% in test [7] (RP7, herbicide alone, foramsulfuron 29, trifloxysulfuron 27.8, imazaquin 27.5, bispyribac-sodium 70 g ha^−1); 17% in test [7] (RP7, herbicide with PBO 2100 g ha^−1 applied 60 min prior); 28% in test [7] (RP7, herbicide with malathion 1000 g ha^−1 applied 60 min prior). Besides, the “Annual bluegrass control S” value in test [7] (herbicide alone, foramsulfuron 29, trifloxysulfuron 27.8, imazaquin 27.5, bispyribac-sodium 70 g ha^−1) is reported as 94%; in test [7] (herbicide with PBO 2100 g ha^−1 applied 60 min prior) it was 94%; in test [7] (herbicide with malathion 1000 g ha^−1 applied 60 min prior) it was 92%.
